Assay results reported in patent US12427134B2, “Methods of reducing the risk of cardiovascular events in a subject with atrial fibrillation and/or atrial flutter” (priority 2019, dated 2025).

Test system: hypertriglyceridemic patients with cardiovascular disease or at high risk for cardiovascular disease
Assay: REDUCE-IT: treatment-emergent adverse events and serious adverse events (safety population)
[1] = patients taking ezetimibe at baseline

Protocol: Specification of Variables and Procedures: Safety assessments included adverse events, clinical laboratory measurements (chemistry, hematology), 12-lead ECGs, vital signs (systolic and diastolic blood pressure, heart rate, respiratory rate, and body temperature), weight, waist circumference, and physical examinations as per Study Procedures in Table 1. […] All laboratory test results were evaluated by the investigator as to their clinical significance. Any observations at physical examinations or laboratory values considered by the investigator to be clinically significant were considered an adverse event.
An adverse event can therefore be any unfavorable and/or unintended sign (including an abnormal laboratory finding), symptom, or disease temporally associated with the use of an investigational medication product, whether or not related to the investigational medication product. All adverse events, including observed or volunteered problems, complaints, or symptoms, were recorded on the appropriate CRF. Each adverse event was evaluated for duration, intensity, and causal relationship with the study medication or other factors.
Adverse events, which included clinical laboratory test variables, were monitored from the time of informed consent until study participation was complete. Patients were instructed to report any adverse event that they experienced to the investigator. Beginning with Visit 2, investigators assessed for adverse events at each visit and recorded the event on the appropriate adverse event CRF.
Causality Assessment: The relationship of an adverse event to the administration of the study drug was assessed according to the following definitions: • No (unrelated, not related, no relation)—The time course between the administration of study drug and the occurrence or worsening of the adverse event rules out a causal relationship and another cause (concomitant drugs, therapies, complications, etc.) is suspected. • Yes (related, probably related, possibly related)—The time course between the administration of study drug and the occurrence or worsening of the adverse event is consistent with a causal relationship and no other cause (concomitant drugs, therapies, complications, etc.) can be identified.
Serious Adverse Events: A serious adverse event (SAE) is defined as an adverse event that meets any of the following criteria: • Results in death; • Is life-threatening—The term “life-threatening” in the definition of “serious” refers to an event in which the patient was at risk of death at the time of the event. […] Important medical events that may not result in death, be life threatening, or require hospitalization were considered an SAE when, based upon appropriate medical judgment, they may have jeopardized the patient and may have required medical or surgical intervention to prevent one of the outcomes listed above.
Analysis of Safety: All analyses of safety were conducted on the safety population, which was defined as all randomized patients. The safety assessment was based on the frequency of adverse events, physical exams, vital signs and safety laboratory tests. AEs with new onset during the study between the initiation of study drug and 30 days after the last dose of study drug for each patient was considered treatment-emergent (TEAEs). This included any AE with onset prior to initiation of study drug and increased severity after the treatment initiation.
This included overall incidence rates (regardless of severity and relationship to study drug), and incidence rates for moderate or severe adverse events. A summary of SAEs and adverse events leading to early discontinuation (for ≥30 days) were presented through data listings. Patients who restarted study drug were included in the summary of AEs leading to discontinuation.

CC/C=C\C/C=C\C/C=C\C/C=C\C/C=C\CCCC(=O)OCC [AMR101, eicosapentaenoic acid ethyl ester]
Study drug-related TEAE leading to study drug withdrawal - Gastroesophageal reflux disease, % patients (Safety population, N = 4089): (0.1) % | Study drug-related TEAE leading to study drug withdrawal - Gastroesophageal reflux disease, n patients (Safety population, N = 4089): 5 | Study drug-related TEAE leading to study drug withdrawal - Gastrointestinal disorders (SOC), % patients (Safety population, N = 4089): (2.4) % | Study drug-related TEAE leading to study drug withdrawal - Gastrointestinal disorders (SOC), n patients (Safety population, N = 4089): 97 | Study drug-related TEAE leading to study drug withdrawal - Hypersensitivity, % patients (Safety population, N = 4089): (0.1) % | Study drug-related TEAE leading to study drug withdrawal - Hypersensitivity, n patients (Safety population, N = 4089): 3 | Study drug-related TEAE leading to study drug withdrawal - Immune system disorders (SOC), % patients (Safety population, N = 4089): (0.1) % | Study drug-related TEAE leading to study drug withdrawal - Immune system disorders (SOC), n patients (Safety population, N = 4089): 4 | Study drug-related TEAE leading to study drug withdrawal - Muscle spasms, % patients (Safety population, N = 4089): (0.0) % | Study drug-related TEAE leading to study drug withdrawal - Muscle spasms, n patients (Safety population, N = 4089): 0 | Study drug-related TEAE leading to study drug withdrawal - Musculoskeletal and connective tissue disorders (SOC), % patients (Safety population, N = 4089): (0.3) % | Study drug-related TEAE leading to study drug withdrawal - Musculoskeletal and connective tissue disorders (SOC), n patients (Safety population, N = 4089): 13 | Study drug-related TEAE leading to study drug withdrawal - Nausea, % patients (Safety population, N = 4089): (0.4) % | Study drug-related TEAE leading to study drug withdrawal - Nausea, n patients (Safety population, N = 4089): 16 | Study drug-related TEAE leading to study drug withdrawal - Pruritus generalized, % patients (Safety population, N = 4089): (0.1) % | Study drug-related TEAE leading to study drug withdrawal - Pruritus generalized, n patients (Safety population, N = 4089): 3 | Study drug-related TEAE leading to study drug withdrawal - Pruritus, % patients (Safety population, N = 4089): (0.0) % | Study drug-related TEAE leading to study drug withdrawal - Pruritus, n patients (Safety population, N = 4089): 1 | Study drug-related TEAE leading to study drug withdrawal - Rash, % patients (Safety population, N = 4089): (0.1) % | Study drug-related TEAE leading to study drug withdrawal - Rash, n patients (Safety population, N = 4089): 3 | Study drug-related TEAE leading to study drug withdrawal - Skin and subcutaneous disorders (SOC), % patients (Safety population, N = 4089): (0.4) % | Study drug-related TEAE leading to study drug withdrawal - Skin and subcutaneous disorders (SOC), n patients (Safety population, N = 4089): 16 | Study drug-related TEAE leading to study drug withdrawal - Skin odor abnormal, % patients (Safety population, N = 4089): (0.1) % | Study drug-related TEAE leading to study drug withdrawal - Skin odor abnormal, n patients (Safety population, N = 4089): 3 | Study drug-related TEAE leading to study drug withdrawal - Vomiting, % patients (Safety population, N = 4089): (0.1) % | Study drug-related TEAE leading to study drug withdrawal - Vomiting, n patients (Safety population, N = 4089): 3 | Study drug-related TEAE: Arthralgia, % (Safety population, N = 4089): (0.6) % | Study drug-related TEAE: Diarrhea, % (Safety population, N = 4089): (2.7) % | Study drug-related TEAE: Dyspepsia, % (Safety population, N = 4089): (0.4) % | Study drug-related TEAE: Eructation, % (Safety population, N = 4089): (0.9) % | Study drug-related TEAE: Flatulence, % (Safety population, N = 4089): (0.8) % | Study drug-related TEAE: Gastrointestinal disorders, % (Safety population, N = 4089): (7.4) % | Study drug-related TEAE: Musculoskeletal and connective tissue disorders, % (Safety population, N = 4089): (1.4) % | Study drug-related TEAE: Nausea, % (Safety population, N = 4089): (0.8) % | Subjects with at Least One TEAE (Safety population, N = 4089): 3343 (81.8%) n (%) | TEAE Leading to Withdrawal of Study Drug, % (Safety population, N = 4089): (7.9) % | TEAE: Anemia, % (Safety population, N = 4089): (4.7) % | TEAE: Angina pectoris, % (Safety population, N = 4089): (4.9) % | TEAE: Arthralgia, % (Safety population, N = 4089): (7.7) % | TEAE: Atrial fibrillation, % (Safety population, N = 4089): (5.3) % | TEAE: Back pain, % (Safety population, N = 4089): (8.2) % | TEAE: Blood and lymphatic system disorders, % (Safety population, N = 4089): (7.9) % | TEAE: Bronchitis, % (Safety population, N = 4089): (7.5) % | TEAE: Cardiac disorders, % (Safety population, N = 4089): (22.3) % | TEAE: Cataract, % (Safety population, N = 4089): (5.7) % | TEAE: Chest pain, % (Safety population, N = 4089): (6.7) % | TEAE: Constipation, % (Safety population, N = 4089): (5.4) % | TEAE: Cough, % (Safety population, N = 4089): (5.9) % | TEAE: Diabetes mellitus, % (Safety population, N = 4089): (4.1) % | TEAE: Diarrhea, % (Safety population, N = 4089): (9.0) % | TEAE: Dizziness, % (Safety population, N = 4089): (5.7) % | TEAE: Dyspnea, % (Safety population, N = 4089): (6.2) % | TEAE: Edema peripheral, % (Safety population, N = 4089): (6.5) % | TEAE: Eye disorders, % (Safety population, N = 4089): (11.7) % | TEAE: Fall, % (Safety population, N = 4089): (3.6) % | TEAE: Fatigue, % (Safety population, N = 4089): (5.6) % | TEAE: Gastroesophageal reflux disease, % (Safety population, N = 4089): (3.0) % | TEAE: Gastrointestinal disorders, % (Safety population, N = 4089): (33.0) % | TEAE: General disorders and administration site conditions, % (Safety population, N = 4089): (25.2) % | TEAE: Gout, % (Safety population, N = 4089): (4.2) % | TEAE: Headache, % (Safety population, N = 4089): (4.2) % | TEAE: Hypertension, % (Safety population, N = 4089): (7.8) % | TEAE: Infections and infestations, % (Safety population, N = 4089): (44.6) % | TEAE: Influenza, % (Safety population, N = 4089): (6.4) % | TEAE: Injury, poisoning, and procedural complications, % (Safety population, N = 4089): (18.3) % | TEAE: Insomnia, % (Safety population, N = 4089): (3.0) % | TEAE: Metabolism and nutrition disorders, % (Safety population, N = 4089): (23.3) % | TEAE: Muscle spasms, % (Safety population, N = 4089): (2.5) % | TEAE: Musculoskeletal and connective tissue disorders, % (Safety population, N = 4089): (35.9) % | TEAE: Musculoskeletal pain, % (Safety population, N = 4089): (4.3) % | TEAE: Myalgia, % (Safety population, N = 4089): (3.3) % | TEAE: Nasopharyngitis, % (Safety population, N = 4089): (7.7) % | TEAE: Nausea, % (Safety population, N = 4089): (4.6) % | TEAE: Nervous system disorders, % (Safety population, N = 4089): (24.6) % | TEAE: Non-cardiac chest pain, % (Safety population, N = 4089): (3.9) % | TEAE: Osteoarthritis, % (Safety population, N = 4089): (5.9) % | TEAE: Pain in extremity, % (Safety population, N = 4089): (5.7) % | TEAE: Pneumonia, % (Safety population, N = 4089): (6.4) % | TEAE: Psychiatric disorders, % (Safety population, N = 4089): (9.1) % | TEAE: Respiratory, thoracic, and mediastinal disorders, % (Safety population, N = 4089): (24.2) % | TEAE: Sinusitis, % (Safety population, N = 4089): (4.1) % | TEAE: Type 2 diabetes mellitus, % (Safety population, N = 4089): (3.6) % | TEAE: Vascular disorders, % (Safety population, N = 4089): (17.3) % | Ventricular extrasystoles TEAE, Event Rate (Safety population, N = 4089): 0.7% | Ventricular extrasystoles TEAE, Number of Subjects (Safety population, N = 4089): 27 | Ventricular fibrillation TEAE, Event Rate (Safety population, N = 4089): 0.0% | Ventricular fibrillation TEAE, Number of Subjects (Safety population, N = 4089): 0 | Ventricular tachycardia TEAE, Event Rate (Safety population, N = 4089): 0.3% | Ventricular tachycardia TEAE, Number of Subjects (Safety population, N = 4089): 12 | TEAE class GI disorders, patients [1]: 37.4% | TEAE class general disorders and administration site conditions, patients [1]: 26.3% | TEAE class musculoskeletal and connective tissue disorders, patients [1]: 41.2% | TEAE class nervous system disorders, patients [1]: 23.7% | TEAE class respiratory, thoracic, and mediastinal disorders, patients [1]: 27.5%
